This is an account of results in US9790200B2, “Dihydroquinoline pyrazolyl compounds” (Hoffmann-La Roche Inc., priority 2015, dated 2017).

One experiment concerns the target T1, human CYP11B1 (Homo sapiens, UniProt P15538).
T1 construct: The expression plasmids contains the ORF for either human/cyno CYP11B1 or CYP11B2; expressed in transfected cells
T1 sequence (P15538 25-503): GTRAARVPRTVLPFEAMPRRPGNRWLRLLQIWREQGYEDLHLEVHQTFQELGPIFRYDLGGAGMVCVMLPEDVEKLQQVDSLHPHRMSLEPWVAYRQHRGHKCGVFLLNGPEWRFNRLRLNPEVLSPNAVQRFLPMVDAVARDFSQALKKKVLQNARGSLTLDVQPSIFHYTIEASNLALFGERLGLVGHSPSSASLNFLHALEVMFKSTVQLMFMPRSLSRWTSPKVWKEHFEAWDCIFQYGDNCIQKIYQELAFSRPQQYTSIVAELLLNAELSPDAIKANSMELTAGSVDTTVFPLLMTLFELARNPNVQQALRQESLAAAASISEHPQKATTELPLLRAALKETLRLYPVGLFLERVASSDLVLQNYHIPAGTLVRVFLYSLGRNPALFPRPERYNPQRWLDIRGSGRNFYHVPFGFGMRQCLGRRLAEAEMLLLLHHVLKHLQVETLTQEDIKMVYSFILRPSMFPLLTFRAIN
Kind of experiment: G-402 cellular enzyme assay, human CYP11B1 (cortisol release, HTRF). Type of experiment: cell-based. The note with it: G-402 cells, 1 μM Deoxycortisol. An excerpt:
Herein we identified the use of the G-402 cell line as a host cell to ectopically express (transiently or stably) enzymes of the CYP11 family. Specifically we developed stable G-402 cells expressing ectopically human CYP11B1, human CYP11B2, human CYP11A1, cynmolgus CYP11B1 or cynomolgus CYP11B2 enzyme activity. Importantly the identified cell line G-402 expresses co-factors (adrenodoxin and adrenodoxin reductase) important for the activity of the CYP11 family and no relevant enzyme activity of the CYP11 family (in comparison to H295R cells) was detected in these cells. Therefore the G-402 cell line is uniquely suited as a host cell for the ectopic expression of enzymes from the CYP11 family.
G-402 cells can be obtained from ATCC (CRL-1440) and were originally derived from a renal leiomyoblastoma.
The expression plasmids contains the ORF for either human/cyno CYP11B1 or CYP11B2 under the control of a suitable promoter (CMV-promoter) and a suitable resistance marker (neomycin). […] Individual cell-clones are then selected and assessed for displaying the desired enzymatic activity using 11-Deoxycorticosterone (Cyp11B2) or 11-Deoxycortisol (Cyp11B1) as a substrate. […]
[formula] wherein, A is the maximum y value, B is the EC50 factor determined using XLFit, C is the minimum y value and D is the slope value. […]
Background: Time-resolved FRET reads energy transfer from a long-lived donor to a nearby acceptor.

Experiment [1] concerns rats with experimental heart failure. The note with it: rat, in vivo; cited from earlier work.
For experiment [2], the system named is rat model of chronic kidney disease. The conditions noted are these: cited from earlier work; for plasma aldosterone: FAD286: 4 weeks of treatment, spironolactone: 4 and 8 weeks of treatment; for angiotensin II and salt-stimulated PAI-1 mRNA expression in the aorta and the heart / renal effects of angiotensin II and high salt (albuminuria, azotemia, renovascular hypertrophy, glomerular injury, PAI-1, osteopontin mRNA, tubulointerstitial fibrosis): rat, in vivo.

The subject of experiment [3] is patients with primary aldosteronism. The conditions noted are these: cited from earlier work.

As for `CN1C(=O)CCc2c1ccc(-c1n[nH]cc1COC1CN(C(=O)c3cnn(C)c3)C1)c2F` [Example 66, 5-Fluoro-1-methyl-6-[4-[[1-(1-methylpyrazole-4-carbonyl)azetidin-3-yl]oxymethyl]-1H-pyrazol-3-yl]-3,4-dihydroquinolin-2-one], the EC50 (usually the concentration at which the effect is half-maximal) at human CYP11B1 is > 30 nM.

Take `N#Cc1ccc(C2CCCc3cncn32)cc1` (centres unmarked) [FAD286]: the “blood pressure and cardiovascular function and structure” value in experiment [1] is given as “improved”. For the same molecule, in experiment [2], the plasma aldosterone entry was “reduced”; the “angiotensin II and salt-stimulated PAI-1 mRNA expression in the aorta and the heart” value is “not”; the “renal effects of angiotensin II and high salt (albuminuria, azotemia, renovascular hypertrophy, glomerular injury, PAI-1, osteopontin mRNA, tubulointerstitial fibrosis)” value was “prevented these renal effects”.

Take `N#Cc1ccc([C@H]2CCc3cncn32)c(F)c1` [LCI699]: in experiment [3] (human, in vivo), the blood pressure entry is “mildly decreased” and the hypokalemia entry is given as “corrected”. The circulating aldosterone levels result in experiment [3] (orally active) is on record as “significantly lower”.

With `CC(=O)S[C@@H]1CC2=CC(=O)CC[C@]2(C)[C@H]2CC[C@@]3(C)[C@@H](CC[C@@]34CCC(=O)O4)[C@H]12` [spironolactone], in experiment [2], the plasma aldosterone entry is “increased”; the “angiotensin II and salt-stimulated PAI-1 mRNA expression in the aorta and the heart” value was “enhanced”; the “renal effects of angiotensin II and high salt (albuminuria, azotemia, renovascular hypertrophy, glomerular injury, PAI-1, osteopontin mRNA, tubulointerstitial fibrosis)” value was “prevented these renal effects”.
